# “And” between values parts separate entries of the source, which are not always exact repeats. Identical values can stand only once. Like-named read-outs stand apart in the source and are kept apart here. Where a SMILES comes first, the peptide text is derived from it.
# Tests used:
# [1] = system: N-acetyldehydroleucine acylase; assay: Hydrolysis of other compounds by the acylase (TLC / amino acid analyzer); type: biochemical, Zoogloea ramigera; conditions: for rel. activity (%): 50 mM test substrate, 0.1 M tris/HCl pH 9, 25° C., hydrolysis rate with N-acetyldehydroleucine = 100%
# Experimental: A qualitative check was performed for 81 compounds to see whether they are accepted as substrate by the acylase. The test batches contained:
# After 16 and 40 hours incubation at 25° C., specimens were taken from the batches, most of which specimens were analyzed in comparison to substrate standards by means of thin-layer chromatography (70% (v/v) ethanol as mobile solvent). The detection took place with ninhydrin spray reagent. A few specimens were tested in addition or alternatively with the amino acid analyzer.
# The amino acids produced from the amino acid amides by means of the action of acylase were detected quantitatively with the amino acid analyzer.
# [2] = system: N-acetyldehydroleucine acylase; assay: Influence of additive substances on the splitting of N-acetyldehydroleucine under standard conditions; type: biochemical, Zoogloea ramigera
# Experimental: The mixing together of the batches, their storage and the taking of specimens took place under sterile conditions. The standard conditions for the enzyme test were:
# 20 mM N-Acetyldehydroleucine
# ADL acylase = assay: Stability of the acylase in the presence of different anions; type: physicochemical, Zoogloea ramigera; conditions: sodium salt 0.5 M in 50 mM glycine pH 11, 20° to 25° C., raw extract; 500000 µM
# Experimental: The influence of different anions on the stability of ADL acylase was investigated. Raw extract which had been compounded with glycerin to 43.5% (w/v) was diluted 1 : 10 with 0.5 molar solutions of various sodium salts in 50 mM glycine (pH 11) and stored at room temperature (20° to 25° C.). Specimens were taken from time-to-time and their enzymatic activity measured under standard conditions, as described in Example 8a).
# Zoogloea ramigera ABI 1 = assay: Induction of N-acetyldehydroleucine acylase in agitated cultures, changing of the inductor; type: cell-based; conditions: inductor 3 g/l, agitated culture, pH 7
# Experimental: All raw extracts were tested at least with N-acetyldehydroleucine and N-acetyldehydroisoleucine but, in most cases, also with N-acetyldehydrovaline. […] The enzymatic reaction was stopped in the batches incubated at 30° C. by adding 0.25 ml color reagent (1 g/l 2,4-dinitrophenyl hydrazine in 2 N HCl). After further incubation at 30° C. for 10 minutes with N-acetyldehydroleucine as substrate or 25 minutes with the isoleucine or valine derivative, 1.5 ml 2,5 N NaOH was added.
# The keto acid released by the enzymatic hydrolysis forms, together with the 2,4-dinitrophenyl hydrazine, a Schiff's base colored red in the alkaline whose absorption was measured in a spectral photometer at 442 nm against a batch without N-acetyldehydroamino acid (=enzyme blank). A blank reading was deducted from these extinction values which blank reading is obtained if the extinction value of a batch only with buffer (=buffer blank) is deducted from that of a batch with buffer and N-acetyldehydroamino acid but without raw extract (=substrate blank). The concentration of the product produced was determined with a calibrated reference for the corresponding keto acid. The enzyme activity is indicated in international units. One unit (U) corresponds to an amount of 1 μmole released keto acid per minute.
# Different substances were added in a concentration of 3 g/l as inductors into agitated cultures with a medium of mineral salt solution (cf. Example 1) with 0.5 g/l yeast extract and 0.5 g/l peptone at pH 7. The technology for agitated cultures is described in Example 1 a).
# [3] = system: N-acetyldehydroleucine acylase; assay: Acylase activity versus concentration of N-acetyldehydroamino acids (kinetic data); type: biochemical, Zoogloea ramigera; conditions: glycine, 0.1 M, pH 9, 30° C.
# Experimental: The activity of the acylase was determined under standard conditions (cf. Example 8a)) with various N-acetyldehydroamino acids in concentrations of 0.1 to 300 mM. A second series of measurements with N-acetyldehydroleucinein the above-indicated concentration range was placed in 0.1 M tris/phosphoric acid buffer.
# Reaction conditions: 0.1 M glycine, pH 9, 30° C.
# Adaptation to the equation v = Vmax. · S/(KM + S +
rel. activity (%) [1] [%],Molecule,% Residual activity ([2]; inhibitor 1 mM) [%],% Residual activity ([2]; inhibitor 10 mM) [%],other results
0,"CC(=O)NC(CC(C)C)C(=O)O (racemic) [N-acetyl-D,L-leucine]",,,
,O[C@H](CS)[C@H](O)CS (racemic) [Dithiothreitol],103,58,
,"O=C(O)c1cc[c]([Hg][OH])cc1 [pOHMB, parahydroxy mercuric benzoate]",93,91,
0,CC(=O)N[C@@H](Cc1ccccc1)C(=O)O [N-acetyl-L-phenylalanine],,,
,NNC(N)=O [Semicarbazide],113,93,
,[Cl-].[Cl-].[Mg+2] [MgCl2],95,88,
,O=S(=O)(O)O [Sulfate],,,% Residual activity after 3 days (ADL acylase): 89%; % Residual activity after 6 days (ADL acylase): 94%; % Residual activity after 21 days (ADL acylase): 15%
0,"COC(=O)NC(C(=O)O)C(C)C (racemic) [N-methoxycarbonyl-D,L-valine]",,,
0.35,C[C@H](N)C(N)=O [L-alanine amide],,,
,"CC(=O)NC(C(=O)O)C(C)C (racemic) [Ac-D,L-valine]",,,Acylase activity after 60 hours of incubation as a function of the inductor (Zoogloea ramigera ABI 1): 0.031 U/mg
0,C[C@H](N)C(=O)N[C@@H](Cc1ccccc1)C(N)=O [L-alanyl-L-phenylalanine amide],,,
,CC(=O)N[C@@H](CC(C)C)C(=O)O [N-acetyl leucine],,,Substrate specificity: hydrolysis by the acylase [1]: not
4.69,CSCC[C@H](N)C(N)=O [L-methionine amide],,,Substrate specificity: hydrolysis by the acylase [1]: hydrolyzes
0,NC(=O)N[C@@H](Cc1ccccc1)C(=O)O [N-carbamoyl-L-phenylalanine],,,
,"CC(=O)NC(Cc1ccc(O)cc1)C(=O)O (racemic) [Ac-D,L-tyrosine]",,,Acylase activity after 60 hours of incubation as a function of the inductor (Zoogloea ramigera ABI 1): 0.011 U/mg
,CC(=O)N[C@H](C(=O)O)C(C)C [N-acetyl valine],,,Substrate specificity: hydrolysis by the acylase [1]: not
,[Cl][Hg][Cl] [HgCl2],84,70,
,"CC(=O)NC(Cc1c[nH]c2ccccc12)C(=O)O (racemic) [Ac-D,L-tryptophan]",,,Acylase activity after 60 hours of incubation as a function of the inductor (Zoogloea ramigera ABI 1): 0.018 U/mg
,N[C@@H]1CON=C1O [Cycloserine],111,105,

rel. activity (%) [1] [%],Molecule,% Residual activity ([2]; inhibitor 1 mM) [%],% Residual activity ([2]; inhibitor 10 mM) [%],other results
,"O=S(=O)(F)Cc1ccccc1 [PMSF, phenylmethane sulfonyl fluoride]",,,% Residual activity ([2]; inhibitor 0.0001 mM): 10%; % Residual activity ([2]; inhibitor 0.01 mM): 0%; Inhibition of the acylase ([2]; phenylmethane sulfonyl fluoride still in micromolar concentration): sharply inhibit; Influence of inhibitors on the acylase ([2]; phenylmethane sulfonylfluoride: 0.001 mM): exert an inhibitory action
,O=C(O)CN(CCN(CC(=O)O)CC(=O)O)CC(=O)O [EDTA],,,% Residual activity [2]: 95%
,Cl [Chloride],,,% Residual activity after 3 days (ADL acylase): 35%; % Residual activity after 6 days (ADL acylase): 0%; % Residual activity after 21 days (ADL acylase): 0%
,c1cnc2c(c1)ccc1cccnc12 [Phenanthroline],94,52,
0,"CNC(CC(C)C)C(=O)O (racemic) [N-methyl-D,L-leucine]",,,
,[N-]=[N+]=[N-].[Na+] [NaN3],105,103,
,O=CO [Formate],,,% Residual activity after 3 days (ADL acylase): 76%; % Residual activity after 6 days (ADL acylase): 63%; % Residual activity after 21 days (ADL acylase): 2%
,"C=C(NC(C)=O)C(=O)O [ADA, 2-acetylamino acrylic acid]",,,Substrate specificity: hydrolysis by the acylase [1]: hydrolyzes; % Vmax [3]: 90%; Km [3]: 6.68 mM
,CC(=O)O [Acetate],,,% Residual activity after 3 days (ADL acylase): 86%; % Residual activity after 6 days (ADL acylase): 81%; % Residual activity after 21 days (ADL acylase): 6%
6.80,CC(C)C[C@H](N)C(N)=O [L-leucine amide],,,Substrate specificity: hydrolysis by the acylase [1]: hydrolyzes
,c1ccc(-c2ccccn2)nc1 [Bipyridine],91,70,
,[Cl-].[Cl-].[Co+2] [CoCl2],91,85,
,O=C(O)CC(O)(CC(=O)O)C(=O)O [Citrate],99,84,
0.46,C[C@@H](N)C(N)=O [D-alanine amide],,,
,[Ca+2].[Cl-].[Cl-] [CaCl2],,93,
,[Cl][Mn][Cl] [MnCl2],99,87,
3.82,CC(C)C[C@@H](N)C(N)=O [D-leucine amide],,,Substrate specificity: hydrolysis by the acylase [1]: hydrolyzes
0,CN[C@@H](CCC(=O)O)C(=O)O [N-methyl-L-glutamic acid],,,
,NC(=O)CI [iodine acetamide],104,74,

rel. activity (%) [1] [%],Molecule,% Residual activity ([2]; inhibitor 1 mM) [%],% Residual activity ([2]; inhibitor 10 mM) [%],other results
0,CC(=O)NCC(=O)O [N-acetyl glycine],,,
,O=C(O)CI [iodine acetate],,,% Residual activity [2]: 76% and 49%
0,CC(=O)N[C@@H](C)C(=O)N[C@H](C(=O)O)C(C)C [N-acetyl-L-alanyl-L-valine] (Ac-Ala-Val-OH),,,
,O=S(=O)([O-])[O-].[Cu+2] [CuSO4],87,83,
0,"COC(=O)NC(CC(C)C)C(=O)O (racemic) [N-methoxycarbonyl-D,L-leucine]",,,
0,N[C@@H](Cc1c[nH]c2ccccc12)C(=O)NCC(=O)O [L-tryptophyl glycine] (H-Trp-Gly-OH),,,
,"N=C(N)c1ccc(N)cc1 [pABA, paraaminobenzamidine]",,89,% Residual activity ([2]; inhibitor 100 mM): 54%; % Residual activity ([2]; inhibitor 200 mM): 0%
,NC(=O)[C@H](N)Cc1c[nH]c2ccccc12 [D-tryptophane amide],,,Substrate specificity: hydrolysis by the acylase [1]: hydrolyzes
,"O=C(O)c1cc[c]([Hg][OH])cc1 [pCMB, parahydroxy mercury benzoate]",104,98,
0,CC(C)[C@H](NC(N)=O)C(=O)O [N-carbamoyl-L-valine],,,
,Phosphate,,,% Residual activity after 3 days (ADL acylase): 96%; % Residual activity after 6 days (ADL acylase): 105%; % Residual activity after 21 days (ADL acylase): 27%
20.4,NC(=O)[C@@H](N)Cc1c[nH]c2ccccc12 [L-tryptophane amide],,,Substrate specificity: hydrolysis by the acylase [1]: hydrolyzes
,CN(C)C(=O)Oc1cccc([N+](C)(C)C)c1 [Neostigmine],102,82,% Residual activity ([2]; inhibitor 100 mM): 0%
,N[C@@H](CCC(=O)N[C@@H](CS)C(=O)NCC(=O)O)C(=O)O [Glutathione reduced],,,% Residual activity [2]: 95%
,[Cl-].[Cl-].[Zn+2] [ZnCl2],95,82,
,NC(=O)[C@@H](N)Cc1c[nH]c2ccccc12 [tryptophane amide],,,Substrate specificity: hydrolysis by the acylase [1]: split with a reaction rate on the order like that achieved with N-acetyldehydroamino acids
0,"CC(C)CC(NC(=O)c1ccccc1)C(=O)O (racemic) [N-benzoyl-D,L-leucine]",,,
,"OCCS [MeSH, mercaptoethanol]",93,99,% Residual activity ([2]; inhibitor 100 mM): 81%

Molecule,rel. activity (%) [1] [%],% Residual activity ([2]; inhibitor 1 mM) [%],% Residual activity ([2]; inhibitor 10 mM) [%],other results
C[C@H](N)C(=O)NCC(=O)O [L-alanyl glycine] (H-Ala-Gly-OH),0,,,
CC(C)C[C@H](N)C(=O)NCC(=O)O [L-leucyl glycine] (H-Leu-Gly-OH),0,,,
CC(C)C[C@H](NC(=O)[C@H](C)N)C(=O)O [L-alanyl-L-leucine] (H-Ala-Leu-OH),0,,,
CC(C)C[C@H](NC(=O)CN)C(=O)O [Glycyl-L-leucine],0,,,

# From US5134073A, “Microbiologically produced N-acetyl-2,3-didehydroleucine acylase” (Degussa Aktiengesellschaft, priority 1989, dated 1992)
